Assay: Observation of the monomer composition after preparation (clarity, solubility, premature polymerization)
Type: physicochemical
Conditions: 2 wt % in 2-octyl cyanoacrylate monomer
Excerpt: The characteristics of the composition are observed at about one minute after preparation and later at least twenty-four hours after preparation.

solubility in the monomer (inferred from clear solution): soluble
premature polymerization of the monomer (up to at least twenty-four hours): does not cause premature polymerization
SMILES: O=C(O)c1ccccc1O [salicylic acid]
